# Laboratory results reported in patent US20120046357A1, “Benzamide and Napthamide Derivatives Inhibiting Nuclear Factor-Kappa (B) - (NK-kB)” (Profectus Biosciences, Inc., priority 2009, published 2012).
# Key:
# [1] = system: NF-κB; test: 293/NFkB-luc reporter cell assay (TNF-α induced luciferase expression); assay type: cell-based; conditions: 293/NFkB-luc, 293 cells, pNF-κB-luc reporter, 2 h pretreatment, 20 ng/ml TNF-α 18 h
# Method: (§1) Two reporter cell assays were used to determine the ability of the compound of Example 10 to inhibit NF-κB driven transcription. The first assay was a 293-cell based assay with a stably integrated pNF-κB-luc reporter plasmid containing 3 NF-κB promoter elements. The second assay was a 293-cell based assay with a stably integrated pTRH1-NF-κB-dscGFP reporter containing 4 NF-κB promoter elements. Cells were treated with 0, 0.2, 1, 10, 20 and 40 μM of the compound of Example 10 for 2 hours then were induced with 20 ng/ml TNF-α for 18 hours. Following the induction, luminescence or fluorescence was quantified using a Beckman-Coulter 2300 plate reader. […] These values represent the median value generated from three independent experiments. As a control, 0.5% DMSO treated and untreated cells were compared to verify that the compound of Example 10 had no effect on the expression of luciferase or in the readout of the assay. There was a slight decrease in the output from the assay in the DMSO treated population although it was not statistically significant. As a result of the controls, the decrease in activity in the drug treated samples was compared to the DMSO control sample.
# [2] = system: NF-κB; test: NF-κB/293/GFP reporter cell assay (TNF-α induced GFP expression); assay type: cell-based; conditions: Homo sapiens, HEK293, 293 cells, pTRH1-NF-κB-dscGFP reporter, 2 h pretreatment, 20 ng/ml TNF-α 18 h; read-out: NF-KB/293/GFP EC50
# Method: as §1
# [3] = system: IL-6 release from RAW264.7 cells; test: LPS-stimulated IL-6 release from RAW264.7 cells (ELISA); assay type: cell-based, mouse; conditions: Mus musculus, RAW264.7, RAW264.7 cells, 2 h pretreatment, 1 μg/mL LPS 20-24 h; read-out: RAW 264.7 IL-6 release EC50
# Method: RAW 264.7 cells were seeded at 4×10^4 cells per well n complete growth medium in 96 well white TC plates with clear bottoms one day prior to the assay. The next day the cells were washed once and 100 μL fresh growth media was added. Cells were pretreated with 0.5 μL from a 6 point 200× dilution series of the test compounds in DMSO for 2 hours. Following pretreatment with the drugs, the inflammatory response was induced by adding 5 μL of a 20 μg/mL solution of LPS (Sigma). The cells were incubated in the presence of the drugs and 1 μg/mL LPS for another 20-24 hours. Typically after treatment the total DMSO was […] of the culture volume and the final concentrations of the compounds were approximately: 40, 20, 10, 1, 0.2 and 0 μM depending on the MW of each compound. Modified dilution series were prepared as needed to get adequate dose response curves without changing the % DMSO. Samples were run in duplicate or triplicate and included DMSO treated control wells with and without LPS stimulation. Drugs with a known activity such as Parthenolide or DHMEQ were run as experimental controls. After 20-24 hours LPS activation, the media supernatant was collected from the cells and replaced with fresh media. The supernatant samples were cleared by centrifugation at 1,000×g for 5 minutes, transferred to fresh storage plates, and stored frozen at −30° C.
# After determining the appropriate supernatant dilutions experimentally, mIL-6 levels in the supernatants were quantified using Quantikine™ mouse IL-6 immunoassay (R&D Systems) according to the manufacturer's protocol. […] diluted in Calibrator Diluent were added to 50 μL of Assay Diluent in microplate wells pre-coated with an anti-mouse IL-6 capture antibody. Controls included a calibrated positive IL-6 control sample, non-specific binding (NSB) wells containing Calibrator Diluent but no IL-6, and a recombinant mouse IL-6 standard dilution series (10-1000 pg/mL). The plates were incubated at room temperature for 2 hours with shaking and then washed 5 times with 400 μL 1× Wash Buffer. […] anti-mouse IL-6 antibody was added to each well to detect IL-6 captured on the plate. The plates were incubated at room temperature for 2 hours and then washed 5 times with 400 μL 1× Wash Buffer. Equal volumes of Color Reagents A and B were mixed and 100 μL of this HRP Substrate Solution was added to each well on the plate. The blue color was allowed to develop for 30 minutes and then the reaction was stopped using 100 μL of Stop Solution yielding a yellow color. Absorbance at 450 nm with a reference wavelength subtracted at 595 nm was recorded using a Becton-Dickinson DTX 880 Multimode Detector.
# The concentration of mIL-6 in the unknown samples was determined from a curve-fit of the mIL-6 standard absorbance data and multiplying by the dilution factor. The maximum activity achieved in the absence of the inhibitor (DMSO+LPS treated wells) was arbitrarily given a value of 100%; likewise the minimum activity in the absence of the stimulant (no LPS) was assigned a value of 0%. Inhibition of the amount of mIL-6 cytokine released in the drug treated wells was calculated relative to the maximum activation in the DMSO+LPS treated control wells (ie. % inhibition=100−(drug+LPS treated)/(DMSO+LPS treated)). Dose response curves were used to determine the effective concentration to inhibit 50% of the mIL-6 cytokine released (IC50) by means of a SigmaPlot macro which fits a sigmoidal dose-response curve to the (log 10) μM concentration versus % inhibition. […] This technique yields an objective value for the IC50 provided that 50% inhibition was approached at the concentrations tested. FIG. 5 illustrates the effect of the compound of Example 10 on inhibiting IL-6 release.
# [4] = target: T1, p65 (RelA) (Homo sapiens, UniProt Q04206); test: TransAM NF-κB family DNA binding ELISA, p65; assay type: biochemical; conditions: binding to NF-κB consensus oligonucleotide
# T1 construct: purchased Active Motif
# T1 sequence (Q04206 whole entry): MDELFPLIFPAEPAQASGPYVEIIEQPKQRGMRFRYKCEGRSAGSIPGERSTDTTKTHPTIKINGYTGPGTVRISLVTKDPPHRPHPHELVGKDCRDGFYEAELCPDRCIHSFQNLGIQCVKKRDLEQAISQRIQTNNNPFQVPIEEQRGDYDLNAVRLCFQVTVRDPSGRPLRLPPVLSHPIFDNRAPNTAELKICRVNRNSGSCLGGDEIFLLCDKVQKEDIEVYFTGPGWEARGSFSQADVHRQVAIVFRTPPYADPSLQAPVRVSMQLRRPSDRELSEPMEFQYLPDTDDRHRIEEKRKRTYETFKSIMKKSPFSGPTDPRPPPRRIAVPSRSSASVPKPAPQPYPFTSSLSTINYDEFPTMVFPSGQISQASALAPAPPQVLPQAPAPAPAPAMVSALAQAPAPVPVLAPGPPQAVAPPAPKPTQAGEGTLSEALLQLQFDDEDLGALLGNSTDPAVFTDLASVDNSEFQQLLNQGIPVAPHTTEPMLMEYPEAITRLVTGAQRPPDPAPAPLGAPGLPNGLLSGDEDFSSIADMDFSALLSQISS
# Method: The binding activity of NF-κB heterodimer or homodimer subunits from activated nuclear extracts or purified recombinant NF-κB proteins exposed to the drug compounds was evaluated using the TransAM NF-κB Family binding ELISA (Active Motif). 3-5 μg of nuclear extracts from TNFα activated Hela or Raji cells (Active Motif) or 20 ng of purified recombinant proteins (p65 and p50 from Active Motif, p52 from Santa Cruz) were incubated for 1 hour at room temperature with 20 μL drug compounds diluted in Complete Lysis buffer without DTT. Treated samples were then transferred to 30 μL Complete Binding Buffer (with DTT) in microplate wells pre-coated with the NF-κB consensus oligonucleotide. […] The plate was incubated for 1 hour at room temperature with gentle shaking and then washed 3 times with 200 μL 1× Wash Buffer. NF-κB p65, p50, p52, RelB, or c-Rel subunits bound to the plate were detected with 100 μL of the primary antibody (diluted 1:1000 in 1× Antibody Buffer) specific for that subunit. The plate was incubated for 1 hour at room temperature and then washed 3 times with 200 μL 1× Wash Buffer. Next, 100 μL of a HRP conjugated goat anti-rabbit antibody (diluted 1:1,000 in 1× Antibody Buffer) was added to each well. The plate was incubated for 1 hour at room temperature and then washed 4 times with 200 μL 1× Wash Buffer. 100 μL of room temperature Developing Solution was added to each well. The reaction was allowed to develop for 2-10 minutes until a medium dark blue color developed (depending on the subunit activity in the lot of extract or lot of recombinant protein used) and then the reaction was stopped with 100 μL Stop Solution yielding a yellow color. Absorbance was recorded using a Becton-Dickinson DTX 880 Multimode Detector at 450 nm with a reference wavelength subtracted at 620 nm. FIGS. 2, 3 and 4 illustrate the effect of Example 10 on inhibiting RelA, RelB and c-Rel binding to NF-κB sites.
SMILES,EC50 [1],EC50 [2],EC50 [3],IC50 [4]
"O=C(NC1=CC(=O)C2OC2C1=O)c1c(O)ccc2ccccc12 (racemic) [Example 12, (±)-N-(2,5-dioxo-7-oxabicyclo[4.1.0]hept-3-en-3-yl)-2-hydroxy-1-naphthamide]",2.2 µM,3.6 µM,0.14 µM,9.7 µM
"Cc1cc(Br)cc(C(=O)NC2=CC(=O)C3OC3C2O)c1O (racemic) [Example 13, (±)-5-bromo-2-hydroxy-N-(2-hydroxy-5-oxo-7-oxabicyclo[4.1.0]hept-3-en-3-yl)-3-methylbenzamide]",21 µM,9.2 µM,1.7 µM,8.7 µM
"Cc1cc(Br)cc(C(=O)NC2=CC(=O)C3OC3C2=O)c1O (racemic) [Example 14, (±)-5-bromo-N-(2,5-dioxo-7-oxabicyclo[4.1.0]hept-3-en-3-yl)-2-hydroxy-3-methylbenzamide]",2.9 µM,3.6 µM,0.25 µM,5.3 µM
"CN(C)c1ccc(C(=O)NC2=CC(=O)C3OC3C2=O)c(O)c1 (racemic) [Example 18, (±)-4-(dimethylamino)-N-(2,5-dioxo-7-oxabicyclo[4.1.0]hept-3-en-3-yl)-2-hydroxybenzamide]",2.1 µM,3.1 µM,0.58 µM,26 µM
